Experimental data as given in patent EP4745135A1 (Gluetacs Therapeutics (Shanghai) Co., Ltd., priority 2023, dated 2025).

How the values were obtained:
CK1α = target: T1, CK1α (Homo sapiens, UniProt P48729+Q96SW2); assay: Western blot, degradation of substrate protein in hPBMCs; format: cell-based
T1 construct: effects of the compounds of the present disclosure on the expression of target proteins in cells; endogenous in cells; host or cells: human PBMCs (Milecell Biotechnologies)

IKZF1 = target: T2, IKZF1 (Homo sapiens, UniProt Q13422+Q96SW2); assay: as above; format: cell-based
T2 construct: effects of the compounds of the present disclosure on the expression of target proteins in cells; endogenous in cells; host or cells: human PBMCs (Milecell Biotechnologies)

IKZF2 = target: T3, IKZF2 (Homo sapiens, UniProt Q96SW2+Q9UKS7); assay: as above; format: cell-based
T3 construct: effects of the compounds of the present disclosure on the expression of target proteins in cells; endogenous in cells; host or cells: human PBMCs (Milecell Biotechnologies)

IKZF3 = target: T4, IKZF3 (Homo sapiens, UniProt Q96SW2+Q9UKT9); assay: as above; format: cell-based
T4 construct: effects of the compounds of the present disclosure on the expression of target proteins in cells; endogenous in cells; host or cells: human PBMCs (Milecell Biotechnologies)

WEE1 = target: T5, WEE1 (Homo sapiens, UniProt P30291+Q96SW2); assay: as above; format: cell-based
T5 construct: effects of the compounds of the present disclosure on the expression of target proteins in cells; endogenous in cells; host or cells: human PBMCs (Milecell Biotechnologies)

GSPT1 = assay: as above; format: cell-based, Human
[1] = target: T6, human Cereblon WT GST-tagged protein (Homo sapiens, UniProt Q96SW2); assay: CRBN-binding affinity, HTRF (CEREBLON BINDING kit); conditions: for inhibition at 0.5 µM: read-out: Inhibition Rate at 0.5 µM (%); for inhibition at 2 µM: read-out: Inhibition Rate at 2 µM (%)
T6 construct: purchased CISBIO 64BDCRBNPEH

[2] = Western blot, 24 hours of compound treatment, compounds tested at 50 nM and 500 nM (concentration for the table not stated)
[3] = 24 hours treatment, compounds at 50 nM and 500 nM (concentration behind the class not stated)

T2 sequence (Q13422 whole entry): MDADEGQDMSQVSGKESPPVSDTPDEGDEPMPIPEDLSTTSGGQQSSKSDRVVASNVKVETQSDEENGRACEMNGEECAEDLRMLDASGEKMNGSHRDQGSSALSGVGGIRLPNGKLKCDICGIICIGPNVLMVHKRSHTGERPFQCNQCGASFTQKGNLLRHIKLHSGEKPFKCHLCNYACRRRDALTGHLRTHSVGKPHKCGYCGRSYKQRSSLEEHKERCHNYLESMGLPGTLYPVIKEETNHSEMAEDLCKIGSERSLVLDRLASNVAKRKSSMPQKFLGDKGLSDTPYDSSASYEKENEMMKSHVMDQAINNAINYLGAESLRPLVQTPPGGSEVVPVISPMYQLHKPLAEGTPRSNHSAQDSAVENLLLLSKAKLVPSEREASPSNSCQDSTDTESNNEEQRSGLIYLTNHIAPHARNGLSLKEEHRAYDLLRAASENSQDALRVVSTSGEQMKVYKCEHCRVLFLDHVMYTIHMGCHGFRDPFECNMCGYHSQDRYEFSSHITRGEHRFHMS
T2 sequence (Q96SW2 whole entry): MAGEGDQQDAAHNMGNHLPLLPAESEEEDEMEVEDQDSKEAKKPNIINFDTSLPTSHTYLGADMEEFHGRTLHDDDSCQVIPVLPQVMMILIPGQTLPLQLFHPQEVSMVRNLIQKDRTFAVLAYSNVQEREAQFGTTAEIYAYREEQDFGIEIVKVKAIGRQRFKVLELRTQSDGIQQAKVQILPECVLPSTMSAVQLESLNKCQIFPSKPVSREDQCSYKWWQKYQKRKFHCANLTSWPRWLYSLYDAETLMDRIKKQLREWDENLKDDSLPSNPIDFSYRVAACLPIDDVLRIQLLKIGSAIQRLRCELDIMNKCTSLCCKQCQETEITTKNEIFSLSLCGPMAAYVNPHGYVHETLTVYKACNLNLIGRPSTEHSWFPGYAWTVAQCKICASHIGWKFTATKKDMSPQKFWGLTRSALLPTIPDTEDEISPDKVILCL
T2 sequence (Q16531 whole entry partner): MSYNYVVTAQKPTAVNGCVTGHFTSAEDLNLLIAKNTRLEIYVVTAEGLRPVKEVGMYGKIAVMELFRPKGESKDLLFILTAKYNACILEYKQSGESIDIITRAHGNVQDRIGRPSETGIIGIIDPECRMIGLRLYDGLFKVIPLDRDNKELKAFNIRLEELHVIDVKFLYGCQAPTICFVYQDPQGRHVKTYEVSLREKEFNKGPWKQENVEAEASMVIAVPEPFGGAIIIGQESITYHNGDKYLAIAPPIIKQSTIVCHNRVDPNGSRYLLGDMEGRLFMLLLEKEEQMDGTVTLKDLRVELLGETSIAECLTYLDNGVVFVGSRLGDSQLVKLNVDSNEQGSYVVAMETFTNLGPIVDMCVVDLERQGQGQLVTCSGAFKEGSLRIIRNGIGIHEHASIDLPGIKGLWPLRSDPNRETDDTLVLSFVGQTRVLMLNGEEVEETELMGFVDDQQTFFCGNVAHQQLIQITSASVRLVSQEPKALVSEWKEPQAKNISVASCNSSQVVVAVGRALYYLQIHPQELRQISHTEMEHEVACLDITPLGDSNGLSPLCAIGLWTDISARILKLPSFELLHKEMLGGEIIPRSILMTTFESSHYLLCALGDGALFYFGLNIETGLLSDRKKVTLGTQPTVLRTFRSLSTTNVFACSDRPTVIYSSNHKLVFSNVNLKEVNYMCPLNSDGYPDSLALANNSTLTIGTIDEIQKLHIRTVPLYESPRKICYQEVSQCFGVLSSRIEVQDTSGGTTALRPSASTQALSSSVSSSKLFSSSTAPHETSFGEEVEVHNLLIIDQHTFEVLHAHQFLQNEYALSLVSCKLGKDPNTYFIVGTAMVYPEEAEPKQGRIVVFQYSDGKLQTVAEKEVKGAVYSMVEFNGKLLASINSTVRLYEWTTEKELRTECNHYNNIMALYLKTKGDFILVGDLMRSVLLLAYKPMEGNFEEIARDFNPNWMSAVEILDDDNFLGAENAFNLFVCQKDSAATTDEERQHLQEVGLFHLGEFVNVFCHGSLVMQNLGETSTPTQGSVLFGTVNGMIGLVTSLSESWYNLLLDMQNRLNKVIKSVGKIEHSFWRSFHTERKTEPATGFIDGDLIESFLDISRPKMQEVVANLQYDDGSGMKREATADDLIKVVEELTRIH
T4 sequence (Q9UKT9 whole entry): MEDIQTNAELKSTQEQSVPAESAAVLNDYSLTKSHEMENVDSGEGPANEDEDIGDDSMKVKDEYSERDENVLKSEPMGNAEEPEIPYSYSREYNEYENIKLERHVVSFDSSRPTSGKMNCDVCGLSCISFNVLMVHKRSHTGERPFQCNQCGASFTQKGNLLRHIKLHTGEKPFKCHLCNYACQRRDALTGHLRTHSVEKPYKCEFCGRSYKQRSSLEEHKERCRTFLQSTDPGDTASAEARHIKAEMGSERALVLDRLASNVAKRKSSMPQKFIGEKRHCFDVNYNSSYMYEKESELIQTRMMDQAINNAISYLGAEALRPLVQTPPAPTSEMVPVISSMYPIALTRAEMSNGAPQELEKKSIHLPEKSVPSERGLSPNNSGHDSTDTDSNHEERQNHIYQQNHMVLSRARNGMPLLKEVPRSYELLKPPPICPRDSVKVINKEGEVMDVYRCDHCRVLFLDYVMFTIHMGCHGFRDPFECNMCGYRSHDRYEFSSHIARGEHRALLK
T4 sequence (Q96SW2 whole entry): as the sequence (Q96SW2 whole entry) above
T4 sequence (Q16531 whole entry partner): as the sequence (Q16531 whole entry partner) above
T5 sequence (P30291 whole entry): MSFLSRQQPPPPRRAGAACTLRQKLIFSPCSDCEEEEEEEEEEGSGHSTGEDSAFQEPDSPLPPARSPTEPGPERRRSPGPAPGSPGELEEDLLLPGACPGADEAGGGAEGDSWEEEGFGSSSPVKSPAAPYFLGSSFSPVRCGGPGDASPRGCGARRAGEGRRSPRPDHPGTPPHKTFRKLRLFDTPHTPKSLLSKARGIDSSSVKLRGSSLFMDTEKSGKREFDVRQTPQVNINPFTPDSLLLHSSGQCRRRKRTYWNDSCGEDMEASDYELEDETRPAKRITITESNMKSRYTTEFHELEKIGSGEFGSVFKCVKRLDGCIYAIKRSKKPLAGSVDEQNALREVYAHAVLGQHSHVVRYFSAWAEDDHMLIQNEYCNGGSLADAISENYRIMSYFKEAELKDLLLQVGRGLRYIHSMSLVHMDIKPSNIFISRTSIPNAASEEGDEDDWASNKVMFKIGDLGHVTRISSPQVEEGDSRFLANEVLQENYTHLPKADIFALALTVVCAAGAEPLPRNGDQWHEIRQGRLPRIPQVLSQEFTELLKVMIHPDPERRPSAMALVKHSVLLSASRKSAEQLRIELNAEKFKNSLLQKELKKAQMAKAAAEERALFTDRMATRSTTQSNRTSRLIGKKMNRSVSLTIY
T5 sequence (Q96SW2 whole entry): as the sequence (Q96SW2 whole entry) above
T5 sequence (Q16531 whole entry partner): as the sequence (Q16531 whole entry partner) above
T1 sequence (P48729 whole entry): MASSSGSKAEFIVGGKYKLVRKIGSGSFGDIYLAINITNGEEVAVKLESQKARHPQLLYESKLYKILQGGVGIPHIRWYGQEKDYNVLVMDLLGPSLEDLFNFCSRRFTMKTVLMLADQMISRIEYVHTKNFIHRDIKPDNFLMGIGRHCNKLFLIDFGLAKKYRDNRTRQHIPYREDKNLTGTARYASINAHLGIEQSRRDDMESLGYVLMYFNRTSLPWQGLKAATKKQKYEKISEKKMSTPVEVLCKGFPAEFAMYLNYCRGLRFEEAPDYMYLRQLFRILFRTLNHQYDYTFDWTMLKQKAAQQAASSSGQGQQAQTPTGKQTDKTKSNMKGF
T1 sequence (Q96SW2 whole entry): as the sequence (Q96SW2 whole entry) above
T1 sequence (Q16531 whole entry partner): as the sequence (Q16531 whole entry partner) above
T3 sequence (Q9UKS7 whole entry): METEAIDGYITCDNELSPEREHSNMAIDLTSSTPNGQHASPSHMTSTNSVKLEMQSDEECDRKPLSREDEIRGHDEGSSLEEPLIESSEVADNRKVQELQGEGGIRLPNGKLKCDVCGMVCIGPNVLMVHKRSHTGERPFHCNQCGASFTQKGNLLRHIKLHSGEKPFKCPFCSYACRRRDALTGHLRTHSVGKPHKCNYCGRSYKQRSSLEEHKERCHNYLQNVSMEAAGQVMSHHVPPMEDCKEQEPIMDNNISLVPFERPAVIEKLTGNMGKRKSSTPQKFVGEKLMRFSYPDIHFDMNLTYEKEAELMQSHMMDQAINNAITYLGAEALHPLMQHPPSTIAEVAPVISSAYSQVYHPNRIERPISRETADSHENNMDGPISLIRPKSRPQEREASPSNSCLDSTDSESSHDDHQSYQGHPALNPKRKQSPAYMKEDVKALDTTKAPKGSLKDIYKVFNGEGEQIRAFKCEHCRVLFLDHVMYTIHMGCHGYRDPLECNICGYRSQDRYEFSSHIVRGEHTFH
T3 sequence (Q96SW2 whole entry): as the sequence (Q96SW2 whole entry) above
T3 sequence (Q16531 whole entry partner): as the sequence (Q16531 whole entry partner) above
T6 sequence (Q96SW2 whole entry): as the sequence (Q96SW2 whole entry) above

| SMILES | CK1α substrate protein remaining % (CK1α; [2]) | IKZF 1 substrate protein remaining % (IKZF1; [2]) | IKZF2 substrate protein remaining % (IKZF2; [2]) | IKZF3 substrate protein remaining % (IKZF3; [2]) | Wee1 substrate protein remaining % (WEE1; [2]) | GSPT1 substrate protein remaining % (GSPT1; [2]) | inhibition at 0.5 µM [1] [%] | inhibition at 2 µM [1] [%] | CK1α substrate protein remaining % (CK1α; [3]) | IKZF 1 substrate protein remaining % (IKZF1; [3]) | IKZF2 substrate protein remaining % (IKZF2; [3]) | IKZF3 substrate protein remaining % (IKZF3; [3]) | Wee1 substrate protein remaining % (WEE1; [3]) | GSPT1 substrate protein remaining % (GSPT1; [3]) |
| --- | --- | --- | --- | --- | --- | --- | --- | --- | --- | --- | --- | --- | --- | --- |
| O=C1CCC(N2Cc3c(CN4C[C@H]5C[C@@H]4CN5C(c4ccccc4)c4ccccc4)cccc3C2=S)C(=O)N1 (stereo partly drawn) [GT-08208, 3-(4-(((1R,4R)-5-benzhydryl-2,5-diazabicyclo[2.2.1]heptan-2-yl)methyl)-1-thioxoisoindolin-2-yl)piperidine-2,6-dione] | B (80%< substrate protein remaining %≤ 100%) | B (80%< substrate protein remaining %≤ 100%) | A (0% ≤ substrate protein remaining % ≤ 80%) | B (80%< substrate protein remaining %≤ 100%) | A (0% ≤ substrate protein remaining % ≤ 80%) | A (0% ≤ substrate protein remaining % ≤ 80%) | 40 to 53 | 80 to 100 |  |  |  |  |  |  |
| O=C1CCC(N2Cc3c(CN4CCC(c5ccccc5C(F)(F)F)CC4)cccc3C2=S)C(=O)N1 (stereo not drawn) [GT-08598, 3-(1-thioxo-4-((4-(2-(trifluoromethyl)phenyl)piperidin-1-yl)methyl)isoindolin-2-yl)piperidine-2,6-dione] | B (80%< substrate protein remaining %≤ 100%) | B (80%< substrate protein remaining %≤ 100%) | B (80%< substrate protein remaining %≤ 100%) | B (80%< substrate protein remaining %≤ 100%) | A (0% ≤ substrate protein remaining % ≤ 80%) | A (0% ≤ substrate protein remaining % ≤ 80%) | 40 to 53 | 60 to 80 |  |  |  |  |  |  |
| O=C1CCC(N2Cc3c(CN4CCN(c5c(Cl)cncc5Cl)CC4)cccc3C2=S)C(=O)N1 (stereo not drawn) [GT-08805, 3-(4-((4-(3,5-dichloropyridin-4-yl)piperazin-1-yl)methyl)-1-thioxoisoindolin-2-yl)piperidine-2,6-dione] | B (80%< substrate protein remaining %≤ 100%) | B (80%< substrate protein remaining %≤ 100%) | B (80%< substrate protein remaining %≤ 100%) | B (80%< substrate protein remaining %≤ 100%) | A (0% ≤ substrate protein remaining % ≤ 80%) | B (80%< substrate protein remaining %≤ 100%) | 60 to 80 | 60 to 80 |  |  |  |  |  |  |
| COc1ccc(N2CCN(Cc3cccc4c3CN(C3CCC(=O)NC3=O)C4=S)CC2)cc1 (stereo not drawn) [GT-08495, 3-(4-((4-(4-methoxyphenyl)piperazin-1-yl)methyl)-1-thioxoisoindolin-2-yl)piperidine-2,6-dione] | B (80%< substrate protein remaining %≤ 100%) | A (0% ≤ substrate protein remaining % ≤ 80%) | A (0% ≤ substrate protein remaining % ≤ 80%) | B (80%< substrate protein remaining %≤ 100%) | A (0% ≤ substrate protein remaining % ≤ 80%) | A (0% ≤ substrate protein remaining % ≤ 80%) | 53 to 60 | 60 to 80 |  |  |  |  |  |  |
| O=C1CCC(N2Cc3c(CN4CCN(c5noc6ccncc56)CC4)cccc3C2=S)C(=O)N1 (stereo not drawn) [GT-08838, 3-(4-((4-(isoxazolo[4,5-c]pyridin-3-yl)piperazin-1-yl)methyl)-1-thioxoisoindolin-2-yl)piperidine-2,6-dione] | B (80%< substrate protein remaining %≤ 100%) | B (80%< substrate protein remaining %≤ 100%) | B (80%< substrate protein remaining %≤ 100%) | B (80%< substrate protein remaining %≤ 100%) | A (0% ≤ substrate protein remaining % ≤ 80%) | A (0% ≤ substrate protein remaining % ≤ 80%) | 53 to 60 | 80 to 100 |  |  |  |  |  |  |
| O=C1CCC(N2Cc3cc(CN4CCN(c5cccs5)CC4)ccc3C2=S)C(=O)N1 (stereo not drawn) [GT-08168, 3-(5-((4-(thiophen-2-yl)piperazin-1-yl)methyl)-1-thioxoisoindolin-2-yl)piperidine-2,6-dione] |  |  |  |  |  |  | 80 to 100 | 80 to 100 | B (80%< substrate protein remaining %≤ 100%) | B (80%< substrate protein remaining %≤ 100%) | B (80%< substrate protein remaining %≤ 100%) | B (80%< substrate protein remaining %≤ 100%) | A (0% ≤ substrate protein remaining % ≤ 80%) | A (0% ≤ substrate protein remaining % ≤ 80%) |
